Results: patent US20060142354A1, “Use of epothilone derivatives for the treatment of hyperparathyroidism” (priority 2002, published 2006)

Legend:
Type in all cases: cell-based, human
[1] = tested on: Tumor disks from seven fresh surgical specimens; assay: in vitro angiogenesis assay, mean over all tumors; conditions: Mean +/− SEM of seven tumors; for % Initiation % ↓ / Al (0-16) % ↓: 10^−8 M, decrease vs control
Text: (§1) It is submitted that at least part of the effect observed with the compounds of formula I on the diseases mentioned herein are resulting from the inhibition of angiogenesis. […] It is known that human vein disks incorporated into a 0.3% fibrin-thrombin clot will develop angiogenic vessel growth from the cut edge of the vessel disk.
(§2) METHODS: Tumor disks (2 mm in diameter) from seven fresh surgical specimens are incorporated into fibrin-thrombin clots overlayed with nutrient medium containing 20% fetal bovine serum. The fragments are allowed to become angiogenic and on day 18, nutrient medium or nutrient medium containing a compound of formula I, is added. Tumor disks are visually assessed over time to determine the percent of wells that initiated an angiogenic response (% I). Neovessel growth, density, and length are graded at intervals using a semi-quantitative visual neovessel growth-rating scheme [angiogenic index (AI), 0-16 scale]. Statistical significance of the results is tested using comparison of two proportions for % initiation and t-tests for the angiogenic index (p<0.05 considered significant*).

[2] = tested on: Bronchial carcinoid tumor disks; assay: in vitro angiogenesis assay, tumor disks in fibrin-thrombin clot
Text: as §1, §2

[3] = tested on: Breast carcinoma tumor disks; assay: as above
Text: as §1, §2

[4] = tested on: Midgut carcinoid tumor disks; assay: as above
Text: as §1, §2

[5] = tested on: Thyroid cancer tumor disks; assay: as above; conditions: Thyroid cancer (identified as a parathyroid adenoma)
Text: as §1, §2

[6] = tested on: Renal cell carcinoma tumor disks; assay: as above
Text: as §1, §2

[7] = tested on: Midgut carcinoid (met) tumor disks; assay: as above
Text: as §1, §2

[8] = tested on: Thymic carcinoid tumor disks; assay: as above
Text: as §1, §2

[9] = percent of wells that initiated an angiogenic response

## C/C(=C\c1csc(C)n1)[C@@H]1C[C@@H]2O[C@]2(C)CCC[C@H](C)[C@H](O)[C@@H](C)C(=O)C(C)(C)[C@@H](O)CC(=O)O1 [epothilone B]
[1]; angiogenic index, 0-16 scale
  Al (0-16) EpoB 10^−8 M: 3 ± 1.1
[1]; [9]
  % Initiation EpoB 10^−8 M: 17.2 ± 7.4%
[1]
  % Initiation % ↓: 60±13.8%
  Al (0-16) % ↓: 73±9%
[1]; listed as EpoB
  % Initiation % ↓: 60 ± 14%
  Al (0-16) % ↓: 73 ± 9%
[2]; 10^−8 M, decrease vs control
  % Initiation % ↓: 12%
  Al (0-16) % ↓: 40%
[2]; angiogenic index, 0-16 scale
  Al (0-16) EpoB 10^−8 M: 6.1
[2]; [9]
  % Initiation EpoB 10^−8 M: 37%
[3]; 10^−8 M, decrease vs control
  % Initiation % ↓: 94%
  Al (0-16) % ↓: 91%
[3]; angiogenic index, 0-16 scale
  Al (0-16) EpoB 10^−8 M: 1
[3]; [9]
  % Initiation EpoB 10^−8 M: 3.3%
[4]; 10^−8 M, decrease vs control
  % Initiation % ↓: 15%
  Al (0-16) % ↓: 40%
[4]; angiogenic index, 0-16 scale
  Al (0-16) EpoB 10^−8 M: 8.2
[4]; [9]
  % Initiation EpoB 10^−8 M: 20%
[5]; angiogenic index, 0-16 scale
  Al (0-16) EpoB 10^−8 M: 2.1
[5]; [9]
  % Initiation EpoB 10^−8 M: 50%
[5]; 10^−8 M, decrease vs control
  % Initiation % ↓: 50%
  Al (0-16) % ↓: 85%
[6]; 10^−8 M, decrease vs control
  % Initiation % ↓: 88%
  Al (0-16) % ↓: 80%
[6]; angiogenic index, 0-16 scale
  Al (0-16) EpoB 10^−8 M: 1
[6]; [9]
  % Initiation EpoB 10^−8 M: 6.7%
[7]; 10^−8 M, decrease vs control
  % Initiation % ↓: 100%
  Al (0-16) % ↓: 100%
[7]; angiogenic index, 0-16 scale
  Al (0-16) EpoB 10^−8 M: 0
[7]; [9]
  % Initiation EpoB 10^−8 M: 0%
[8]; 10^−8 M, decrease vs control
  % Initiation % ↓: 40%
  Al (0-16) % ↓: 73%
[8]; angiogenic index, 0-16 scale
  Al (0-16) EpoB 10^−8 M: 2.5
[8]; [9]
  % Initiation EpoB 10^−8 M: 3.3%
